Results taken from patent publication US12329851B2 (MedinCell S.A., priority 2021, dated 2025).

Test: Population pharmacokinetics (PopPK) modeling
Set-up: species or system human
Conditions: after sc Risperidone formulation

- final PopPK model estimate for clearance (CL): 5.78 L/h
SMILES: Cc1nc2n(c(=O)c1CCN1CCC(c3noc4cc(F)ccc34)CC1)CCCC2O (stereo not shown) [9-OH-risperidone, 9-hydroxy-risperidone]
